Results on 3 molecules are retold here after ChEMBL document CHEMBL1201862, “PubChem BioAssay data set” (2004).

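Following 48 hours of exposure in 96-well plates, responses at five concentrations were used to interpolate endpoints linearly. Here, GI50 denotes the concentration required for 50% inhibition of growth.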 The source made the active and inactive calls. Rule as the data show it: active = GI50 up to about 1.1 µM and inactive = higher.

Test systems include A549; CAKI-1; CCRF-CEM; EKVX; HCC 2998; HCT-15; KM12; LOX IMVI; MCF7; NCI-H23; NCI-H522; NCI/ADR-RES; OVCAR-4; OVCAR-8; SF-268; SK-MEL-5; SK-OV-3; SN12C; UACC-62; UO-31.
Holding throughout (test): NCI anticancer screen, dose series, 48 h

Consider `COc1ccc2cc1Oc1ccc(cc1)CC1c3c(cc(OC)c4c3Oc3cc5c(cc3O4)CCNC5C2)CCN1C` (stereo not given), for which the GI50 was 2.2 µM (inactive) in the test on A549; 2.87 µM (inactive) in the test with CAKI-1; 1.24 µM (inactive) in the test on CCRF-CEM; 1.94 µM (inactive) in the test on EKVX; 1.2 µM (inactive) in the test with HCC 2998; 1.77 µM with HCT-15. Also, the GI50 in the test with KM12 is 1.85 µM (inactive); with LOX IMVI, 1.69 µM (inactive); in the test on MCF7, 1.85 µM (inactive); in the test with NCI-H23 it was 2.06 µM (inactive); in the test with NCI-H522, 1.7 µM (inactive); with NCI/ADR-RES it was 1.92 µM (inactive). The GI50 is 2.33 µM (inactive) in the test on OVCAR-4; 1.77 µM (inactive) in the test on OVCAR-8; 1.95 µM (inactive) in the test with SF-268; 2.06 µM (inactive) in the test on SK-MEL-5; 4.67 µM (inactive) in the test on SK-OV-3; 1.91 µM (inactive) in the test with SN12C. For the same molecule, the GI50 with UACC-62 was 1.82 µM (inactive); with UO-31, 15.6 µM (inactive).

For `COc1cc(C2S/C(=C/c3ccccc3)C(=O)N2c2ccc(NC(C)=O)cc2)cc(OC)c1OC` (stereo not given), the GI50 in the test on A549 is 23.8 µM (inactive); with CAKI-1, 18.8 µM (inactive); in the test on CCRF-CEM, 0.319 µM (active); in the test on EKVX it was 9.71 µM (inactive); in the test on HCC 2998, 19.7 µM (inactive); in the test on HCT-15, 15 µM. Moreover, the GI50 in the test on KM12 was 14.1 µM (inactive); in the test on LOX IMVI it was 18.2 µM (inactive); with MCF7, 23.9 µM (inactive); in the test with NCI-H23 it was 20 µM (inactive); in the test on NCI-H522, 10.1 µM (inactive); in the test on NCI/ADR-RES, 23.4 µM (inactive). The GI50 with OVCAR-4 was 19.3 µM (inactive); with OVCAR-8 it was 18.5 µM (inactive); in the test on SF-268 it was 17.9 µM (inactive); in the test with SK-MEL-5, 13.1 µM (inactive); in the test on SK-OV-3, 35.2 µM (inactive); with SN12C, 15.8 µM (inactive). The GI50 was 20 µM (inactive) in the test with UACC-62 and 24 µM (inactive) in the test with UO-31.

With `S=P1(Sc2ccccc2)Oc2ccc3ccccc3c2-c2c(ccc3ccccc23)O1`, the GI50 in the test on A549 was > 100 µM (inactive); with CAKI-1 it was > 83.9 µM (inactive); in the test with CCRF-CEM, > 100 µM (inactive); in the test with EKVX, > 100 µM (inactive); in the test with HCC 2998 it was > 100 µM (inactive); in the test with HCT-15, more than 80.4 µM. The GI50 is > 100 µM (inactive) with KM12; > 79.6 µM (inactive) with LOX IMVI; 71.8 µM (inactive) in the test on MCF7; > 100 µM (inactive) in the test on NCI-H23; 49.9 µM (inactive) in the test with NCI-H522; > 100 µM (inactive) with NCI/ADR-RES. The GI50 in the test with OVCAR-4, in the test with OVCAR-8, with SF-268, in the test on SK-MEL-5, in the test on SK-OV-3 and in the test with SN12C was > 100 µM (inactive) throughout. Moreover, the GI50 in the test with UACC-62 and in the test with UO-31 was > 100 µM (inactive) each time.
